Results taken from patent publication US9951115B2, “CGRP agonist peptides” (priority 2013, dated 2018).
Bridge positions count the residues as written; N and C are the ends. Peptide text beside a SMILES is read from it.

Key:
[1] = target: T1, CALCRL:RAMP3 (adrenomedullin 2 (AM2) receptor) (Homo sapiens, UniProt O60896+Q16602); test: CALCRL:RAMP3 CRE-bla Freestyle 293F agonist screen (adrenomedullin 2 receptor); type: cell-based; settings: CALCRL:RAMP3-CRE-bla Freestyle 293F cells, 5 hours incubation, FIG. 2
T1 construct: host or cells: Freestyle 293F (CRE-bla reporter line)
T1 sequence (Q16602 23-461): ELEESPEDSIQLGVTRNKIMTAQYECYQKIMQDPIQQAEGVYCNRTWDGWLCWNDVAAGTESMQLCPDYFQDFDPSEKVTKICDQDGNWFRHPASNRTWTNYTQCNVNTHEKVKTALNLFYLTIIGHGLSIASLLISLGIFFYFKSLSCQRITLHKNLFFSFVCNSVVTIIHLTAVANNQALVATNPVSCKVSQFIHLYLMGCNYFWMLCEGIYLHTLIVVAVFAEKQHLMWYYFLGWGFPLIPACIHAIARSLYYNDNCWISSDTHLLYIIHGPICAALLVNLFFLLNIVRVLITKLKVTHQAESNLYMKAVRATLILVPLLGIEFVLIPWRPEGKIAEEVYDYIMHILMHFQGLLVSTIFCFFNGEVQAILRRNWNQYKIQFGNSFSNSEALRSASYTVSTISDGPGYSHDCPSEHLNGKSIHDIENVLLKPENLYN
T1 sequence (O60896 24-148): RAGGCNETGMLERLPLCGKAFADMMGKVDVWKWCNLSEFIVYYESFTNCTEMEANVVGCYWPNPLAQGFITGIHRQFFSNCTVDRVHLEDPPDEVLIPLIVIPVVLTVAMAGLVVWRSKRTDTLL
Protocol: Cell-based GPCR Profiling Assays. A representative CGRP agonist peptide according to the present invention, ACX017 (SEQ ID NO:1), was profiled against G-Protein Coupled Receptors (GPCRs) in cell-based assays to determine its agonist activity and dose response. Assays were performed using the SelectScreen® Cell-based GPCR Profiling Services by Life Technologies, Carlsbad, Calif.
CALCRL:RAMP3—CRE-bla Freestyle 293F—Agonist Screen (Adrenomedullin 2 Receptor)
CALCRL:RAMP3-CRE-bla Freestyle 293F cells were thawed and resuspended in Assay Media (DMEM, 10% dialyzed FBS, 25 mM HEPES pH 7.3, 0.1 mM NEAA, 100 U/mL/100 μg/mL Pen/Strep) to a concentration of 312,500 cells/mL. 32 μL of cell suspension (10,000 cells) was added to each well of a 384-well Poly-D-Lysine assay plate. Cells in Assay Media were incubated for 16-24 hours in the plate at 37° C./5% CO2 in a humidified incubator. 4 μL of a 10× serial dilution of Adrenomedullin or ACX017 were added to appropriate wells of the plate. […] The plate was read on a fluorescence plate reader. […]
Cell-free Control. […] It was used to determine the background fluorescence for both coumarin and fluorescein wavelengths. […]
Known Agonist. A known agonist titration was run on every plate for each cell-line to ensure the cell line was activated within an expected EC50/IC50 range as previously determined.

[2] = system: Sprague Dawley rats, food intake; test: Four-day food intake study; type: in vivo, rat; settings: male Sprague Dawley rats on 60% kcal fat diet, 150 μg/kg intraperitoneal once daily for four days, food intake at 2, 4, 6, 8 hours post dose
Protocol: Food Intake Study. The effect of a CGRP agonist, in accordance with the present invention, on food intake over time both within and across several days of treatment was evaluated. Study was performed by Explora BioLabs, San Diego, Calif. and animals treated in accordance with its IACUC standards.
On Day 0, 12 animals were randomized into two groups, Test and Control, to obtain similar body weight averages between groups. Animals were dosed via a single intraperitoneal injection, with either ACX017 (SEQ. ID NO:1) (Test group) or vehicle (Control group) each day, for four days. On each day, dosing was performed in the hour prior to the end of the light phase. ACX017 was dosed at 150 μg/kg in a 10% DMSO aqueous solution. Both ACX017 and vehicle were delivered as 1 mL/kg doses.
Food consumption was measured pre-dose and at 2, 4, 6 and 8 hours post dose. Food intake was measured by weighing food hoppers on Days 1, 2, 3 and four in the hour before end of the light phase and at 2, 4, 6 and 8 hours post dosing.
Average food intake for each of the Test and Control groups at each time point post dosing was determined. Cumulative food intake for each group over the entire test period (8 hours) is provided in graph form in FIGS. 1-4 for each of Days 1-4, respectively.

CC(C)C[C@H](NC(=O)[C@H](CCCNC(=N)N)NC(=O)CNC(=O)[C@H](CC(C)C)NC(=O)[C@@H](NC(=O)[C@@H]1CSSC[C@H](NC(=O)[C@H](C)N)C(=O)N[C@@H](CC(=O)O)C(=O)N[C@@H]([C@@H](C)O)C(=O)N[C@@H](C)C(=O)N[C@@H]([C@@H](C)O)C(=O)N1)C(C)C)C(=O)N[C@@H](CO)C(=O)N[C@@H](CCC(N)=O)C(=O)N[C@@H](CCC(=O)O)C(=O)N[C@@H](CC(C)C)C(=O)N[C@@H](Cc1c[nH]cn1)C(=O)N[C@@H](CCCNC(=N)N)C(=O)N[C@@H](CC(C)C)C(=O)N[C@@H](CCC(N)=O)C(=O)N[C@H](C(=O)N[C@@H](Cc1ccc(O)cc1)C(=O)N1CCC[C@H]1C(=O)N[C@@H](CCCNC(=N)N)C(=O)N[C@H](C(=O)N[C@@H](CC(N)=O)C(=O)N[C@H](C(=O)NCC(=O)N[C@@H](CO)C(=O)N[C@@H](CCCCN)C(=O)N[C@@H](C)C(=O)N[C@@H](Cc1ccccc1)C(N)=O)C(C)C)[C@@H](C)O)[C@@H](C)O [ACX017] (H-ACDTATCVLGRLSQELHRLQTYPRTNVGSKAF-NH2; disulfide 2-7)
activation of the adrenomedullin 2 (AM2) receptor [1]: did not activate the adrenomedullin 2 (AM2) receptor
appetite suppression (reduced food intake compared to Control group) [2]: suppressed appetite in the Test group for at least about four hours after dosing
